# What was measured:
# [1] = tested on: P2X7 receptor; assay: Mitochondrial membrane depolarization (JC-10) after P2X7 receptor stimulation with ATP in monocytes and macrophages; type: cell-based, mouse; conditions: ATP 3 mM
# Source text: FIG. 5. P2X7 receptor induces mitochondrial membrane depolarization. (a) Mitochondrial membrane potential from blood monocytes stained with JC-10 in a control healthy donor (left), in a septic patient at day 1 (middle), and from healthy controls, abdominal surgery and septic patients at day 1 or 120 (right); PE^− cells represent the monocytes with mitochondrial depolarization. (b) Correlation between the percentage of monocytes with mitochondrial membrane depolarization and the quantification of P2X7 receptor MFI in monocytes from the septic patients; IC: immunocompromised septic patients. (c) Kinetics of mitochondrial depolarization after ATP (3 mM) stimulation of LPS-primed BMDMs incubated or not with the P2X7 receptor antagonist A438079 (10 μM). (d) Percentage of human monocytes from healthy donors with mitochondrial membrane depolarization after ATP (3 mM, 30 min) stimulation and incubated or not with the P2X7 receptor antagonist AZ11645373 (10 μM). […]
# Mitochondrial membrane potential was measured using the JC-10 dye (Abcam) in BMDMs with a Sinergy Mx plate reader (BioTek) or by flow cytometry using the BD FACS Celesta flow cytometer (BD Biosciences), or in human monocytes (CD14^+ labelled with anti-CD14 APC-H7, clone MφP9, BD Biosciences) using FACS Canto (BD Biosciences), following the indications of manufacturer.
# [2] = tested on: HIF-1α; assay: HIF-1α staining in human monocytes by flow cytometry; type: cell-based; conditions: ATP 1 mM 30 min, washed, cultured 2 h (FIG. 7e)
# Experimental: (e) Representative histogram plot of HIF-1α staining (left) or quantification of HIF-1α mean intensity fluorescence increase (ΔMFI, right) in monocytes isolated from healthy donor blood samples and treated or not with ATP (1 mM, 30 min) in the presence or absence of AZ11645373 (10 μM) or PDTC (10 μM), and then washed and cultured for 2 h; non-stained monocytes (light grey, left).
# Human peripheral blood mononuclear cells (PBMCs) were isolated from blood within one hour after extraction using Ficoll histopaque 1077 (Sigma-Aldrich). […] Cells were treated with ATP (Sigma-Aldrich), antimycin A (Sigma-Aldrich) or FCCP (Sigma-Aldrich) in the presence or absence of PDTC (Sigma-Aldrich) or echinomycin (Sigma-Aldrich) in E-total buffer (147 mM NaCl, 10 mM HEPES, 13 mM glucose, 2 mM CaCl2), 1 mM MgCl2, and 2 mM KCl) and then washed and stimulated with E. coli LPS O55:B5 in their respective complete media. […] After LPS treatment, cells were incubated with P2X7 modulating nanobodies, the specific P2X7 receptor antagonist A438079 or AZ11645373 (Tocris), and then subsequently stimulated with ATP or nigericin (Sigma-Aldrich) in E-total buffer. Times and concentrations for the reagents used are specified in the figure legends.
# HIF-1α expression was detected in CD14^+ monocytes using Alexa Fluor-647 mouse anti-human HIF-1α (BD Biosciences, Clone 54) at 1:1000 dilution.
compound,measurement,setting,value
"Nc1ncnc2c1ncn2[C@@H]1O[C@H](COP(=O)(O)OP(=O)(O)OP(=O)(O)O)[C@@H](O)[C@H]1O [ATP, adenosine triphosphate]",mitochondrial membrane depolarization by the agent itself,[1],induced
same,HIF-1α expression by the agent itself,[2],increased

# From patent US20220334127A1, “IN VITRO METHOD FOR OBTAINING CLINICAL DATA IN PATIENTS SUFFERING FROM AN INFLAMMATORY DISEASE” (FUNDACIÓN PARA LA FORMACIÓN E INVESTIGACIÓN SANITARIAS DE …, priority 2019, published 2022)
